{
  "source": "patent US8187573B2",
  "about": "“In vivo detection of apoptosis” (priority 2005, dated 2012)",
  "key": {"[1]": {"tested_on": "SCK tumor cells", "experiment": "Flow cytometry of cells from SCK tumors after in vivo FAM-VAD-FMK labelling", "parameters": "species or system mouse", "settings": "8.0 mg/kg ATO", "procedure": "In another set of mice, the tumors were allowed to grow for 7 days. Control mice received placebo injections as before and test mice received ATO injections as before. After 24 hours all mice received I.V. injections of FAM-VAD-FMK as before. The in vivo apoptosis detection and imaging reagent was allowed to circulate through each mouse for 30 minutes. After imaging tumor-associated apoptosis in vivo, tumor tissue was collected from the window chamber by scraping the tumor out of the chamber into a trypsin solution, stirring for 30 minutes with 10 μg/ml DNase and 5 μg/ml collagenase, filtering the suspension using a […] cell strainer. Flow cytometry was then performed using a FACS Caliber flow cytometer (Becton Dickinson Immunocytometry System, San Jose, Calif.) for the analysis of apoptosis in the cell population obtained from the window chamber. All data was acquired with an event acquisition set for 10,000 events. Data was analyzed using CellQuest Pro cytometer software."}, "[2]": {"tested_on": "SCK mammary tumors", "experiment": "SCK mammary tumor window chamber model, bright-field imaging of hemorrhaging", "assay_type": "in vivo, A/J mice", "settings": "8.0 mg/kg ATO", "procedure": "(§1) Using a mouse window chamber model, SCK mammary tumors were evaluated for levels of apoptosis induction in tumors following irradiation treatment with arsenic trioxide (ATO) and heat. A window chamber, used for viewing tumors, was placed over a fold of skin in A/J mice. 2×10^5 SCK mammary carcinoma cells were injected into the skin fold. The tumors were allowed to grow for 7 to 9 days. In the test mice, tumors were irradiated with 20 Gy, 8 mg/kg ATO and 2 hours later the tumors were heated at 41.5° C. for 60 minutes. Control mice were not treated with irradiation or heat and a placebo was injected instead of ATO.\n(§2) After allowing the tumors to grow 7 days, the test mice were first irradiated with 20 Gy. This was immediately followed by an intraperitoneal (I.P.) injection of ATO. The ATO was dissolved in water and injected in a solution of PBS with 5% w/v of dextrose at a concentration of 8 mg/kg. After 2 hours the tumors were heated at 41.5° C. for 60 minutes. Control mice received an I.P. injection of PBS with 5% dextrose.\nPrior to treatment, tumors were examined in control mice and designated test mice. Low magnification bright-field image composite photographs of SCK mammary tumors taken through a window chamber reveal a low level of hemorrhaging in all tumors (FIG. 1). […]"}, "[3]": {"tested_on": "SCK mammary tumors", "experiment": "SCK mammary tumor window chamber model, in vivo apoptosis imaging with FAM-VAD-FMK (488 nm, FITC filter)", "parameters": "species or system A/J mice", "settings": "8.0 mg/kg ATO, 8 μg FAM-VAD-FMK IV, 30 min circulation", "procedure": "as §1, §2\nApoptosis was detected by injecting the in vivo apoptosis detection reagent FAM-VAD-FMK into the tail vein of control and test mice. […]\nControl mice were given FAM-VAD-FMK injections following placebo injections. […] Test mice that received ATO treatment were given FAM-VAD-FMK injections at 3 hours and 24 hours after ATO treatment, and apoptosis was evaluated as before. […]"}, "[4]": {"tested_on": "FSaII murine fibrosarcoma tumors", "experiment": "Longitudinal apoptosis imaging of FSaII tumor in dorsal skin flap chamber (DSFC) with FAM-VAD-FMK", "assay_type": "in vivo, nu/nu mice", "procedure": "A longitudinal study was performed in nu/nu mice to assess the efficacy of arsenic trioxide (ATO) on FSaII murine fibrosarcoma tumors before and after ATO treatment through a window chamber.\nDorsal skin flap chambers (DSFC) were surgically implanted into the backs of nu/nu mice as follows. Entire implantation procedure was conducted within a laminar flow hood to preserve a sterile field. Skin was washed twice with betadine and allowed to dry. One sterilized chamber piece containing a round window (9 mm) was placed on one side of the dorsal skin fold. Holes for three connecting screws were made through the skin fold connecting with another chamber piece with a similar window. The assembly was then tightened together with screws and nuts through the chamber piece spacers. A circle of cutaneous tissue and fascia was carefully cut away from the skin fold inside the DSFC window, exposing the blood vessels of the subcutaneous tissue adjacent to the striated muscles of the opposing skin fold. Antibiotic ointment (bacitracin zinc/polymyxin B sulfate/neomycin sulfate) was used on the edges of the wound inside the DSFC window. A glass window was placed in the chamber to cover the exposed tissue and secured with a snap C-ring. The surgical wound procedure was then repeated in the opposite DSFC window so that a very thin, transparent layer of fascia and vessels remained visible through both windows (created to facilitate microscope light transmission through the tissue). Finally, the chamber was sutured to the skin.\nAfter surgery, the animals were housed in barrier cages inside a humidified incubator maintained at 32° C. with unrestricted access to food and water. To minimize risk of infection, all mice were given amoxicillin in their drinking water (250 mg per 5 mL water) after DSFC implantation and throughout the experiment.\nTumor cells were implanted into one side of the chamber by temporary removal of the C-ring and glass cover slip. […]"}, "[5]": {"tested_on": "Spleen, Liver, Thymus, and CNS tissues", "experiment": "In vivo detection of morphine-mediated apoptosis: apoptosis positive cell counts in tissue sections after IV FAM-VAD-FMK", "settings": "bone marrow and liver tissues (conclusion)", "quoted_text": "Spleen, Liver, Thymus, and CNS tissues were isolated from different treatment groups, frozen and mounted on glass slides. The various cell types were adjusted to 1×10^6 cells/mL and cytospun on a glass slide for analysis by fluorescence microscopy. Sections were photographed and analyzed by MetaMorph analysis program for apoptosis positive cell counts. Counts were analyzed by statistics software.\nSpleen, Liver, Thymus, and CNS tissues were isolated from different treatment groups, frozen and mounted on glass slides. Sections were photographed and analyzed by MetaMorph analysis program for apoptosis positive cell counts. Counts were analyzed by statistics software."}},
  "note": "Entries after “also recorded” stand apart in the source; their conditions may differ.",
  "data": [
    {"compound": "arsenic trioxide [ATO]", "values": [
      {"measurement": "apoptotic cells (apoptosis induction rate)", "setting": "[1]; 24 hours after treatment, flow cytometry, 10,000 events, control mouse 18%", "result": 39, "unit": "%"},
      {"measurement": "increase in apoptosis versus control mouse", "setting": "[1]; 24 hours, flow cytometry", "result": "two-fold increase"},
      {"measurement": "level of hemorrhaging in tumor", "setting": "[2]; 3 hours after completion of treatment, vs placebo control", "result": "Increased levels of hemorrhaging"},
      {"measurement": "level of hemorrhaging in tumor", "setting": "[2]; 24 hours after completion of treatment, vs 3 hour photograph", "result": "amount of hemorrhaging has also increased over time"},
      {"measurement": "level of apoptosis in tumor (fluorescence)", "setting": "[3]; 3 hours post ATO", "result": "substantial increase in the level of apoptosis; also recorded: high level of apoptosis"},
      {"measurement": "level of apoptosis in tumor (fluorescence)", "setting": "[3]; 24 hours post ATO", "result": "even higher; also recorded: higher level of apoptosis"},
      {"measurement": "level of apoptosis in tumor (fluorescence, 10×)", "setting": "[4]; 8.0 mg/kg ATO IP, 3 hours post ATO, 12.0 μg FAM-VAD-FMK IV, 45 min, same tumor before vs after", "result": "significant level of apoptosis; also recorded: increase in apoptosis within the tumor is clear"}
    ]},
    {"compound": "CN1CC[C@]23c4c5ccc(O)c4O[C@H]2[C@@H](O)C=C[C@H]3[C@H]1C5", "note": "[Morphine, morphine]", "values": [
      {"measurement": "enhancement of apoptosis of LPS activated cells", "setting": "[5]", "result": "enhanced apoptosis of LPS activated cells"}
    ]},
    {"compound": "carboxyfluorescein-valanyl-alanyl-aspartyl(O-methyl)-fluoromethyl ketone [FAM-VAD-FMK]", "values": [
      {"measurement": "in vivo detection of apoptosis in living tissue", "setting": "[4]; IV injection", "result": "works for the in vivo detection of apoptosis"},
      {"measurement": "side-effects of the reagent in longitudinal studies", "setting": "[4]; IV injection, repeated in the same animal", "result": "no side-effects"}
    ]}
  ]
}
